Measured values from patent US20100160369A1, “S1P1 Agonists and Methods of Making And Using” (EXELIXIS, INC., priority 2008, published 2010).

Each compound was assayed against S1P1 (Homo sapiens, UniProt P21453) (assay: CNG cAMP Assay (Assay 1)). Conditions: footnote 1: Relative EC50 was measured, read-out: Assay 1 Relative EC50.
Format: cell-based
Parameters: host or cells: HEK293 cells expressing the CNG channel
Protocol: Frozen HEK293 cells expressing the CNG channel and S1P1 (BD Biosciences, San Jose, Calif.) were thawed and plated into the wells of a black, clear bottom, 384-well CellBind plate (Corning, Corning, N.Y.) at 14,000 cells per well. HEK293 cells expressing the CNG channel and CB1 (BD Biosciences) were cultured and plated under the same conditions. The cells were incubated for 16 h at 37° C. in complete DMEM medium (Invitrogen Carlsbad, Calif.) containing 10% FBS (HyClone Logan, Utah), 250 μg/mL geneticin (Invitrogen), and 1 μg/mL puromycin (Sigma-Aldrich, St. Louis, Mo.). A membrane potential dye (BD Biosciences) was added and the plates were incubated for 2-2.5 h at room temperature.
Test compounds were tested at maximum concentrations of 10 μM. Compounds were diluted in DMSO (10 concentration points, 3-fold each) and added to the assay plate at final DMSO concentrations of 1.8%. For each compound, there were duplicate assay plates and each assay plate had duplicate wells per concentration point. Test compounds were added to the cells in a DPBS solution containing 25 μM Ro 20-1724 (Sigma-Aldrich), 500 nM of the A2b receptor agonist NECA (Sigma-Aldrich) and 10 nM (EC95) of S1P (Avanti Alabaster, Ala.) and incubated for 90 min. The assay plate was read before compound addition (T0) and after the 90 min incubation (T90) using an EnVision plate reader (PerkinElmer, Waltham, Mass.) at an excitation wavelength of 350 nm and an emission wavelength of 590 nm. The T90/T0 ratio was determined for each concentration of the test compounds. The percent agonist activity was determined as [(test compound−DMSO alone control)/(NECA alone control−DMSO alone control)*100]. The percent activities were plotted against compound concentration to determine EC50 using XLFit (IDBS, Alameda, Calif.). The control used for calculating rEC50 in the S1P1 CNG agonist assay was DMSO.
Assay 1 is the CNG cAMP Assay as described in Biological Example 1. Assay 2a and 2b are the Tango™ β-arrestin Recruitment Assay in HEK293 and U2OS cells, respectively, as described in Biological Example 2. Assay 3a is the hS1P1R GTPγS Binding Assay as described in Biological Example 3. Assay 3b is the GTP-Eu Binding Assay as described in Biological Example 3. EC50's were measured unless otherwise noted. […] In the table, “nt” means the Compound was not tested and “no” means the compound was tested but had no measurable activity under the assay conditions employed.

Sequence of S1P1 (P21453 whole entry): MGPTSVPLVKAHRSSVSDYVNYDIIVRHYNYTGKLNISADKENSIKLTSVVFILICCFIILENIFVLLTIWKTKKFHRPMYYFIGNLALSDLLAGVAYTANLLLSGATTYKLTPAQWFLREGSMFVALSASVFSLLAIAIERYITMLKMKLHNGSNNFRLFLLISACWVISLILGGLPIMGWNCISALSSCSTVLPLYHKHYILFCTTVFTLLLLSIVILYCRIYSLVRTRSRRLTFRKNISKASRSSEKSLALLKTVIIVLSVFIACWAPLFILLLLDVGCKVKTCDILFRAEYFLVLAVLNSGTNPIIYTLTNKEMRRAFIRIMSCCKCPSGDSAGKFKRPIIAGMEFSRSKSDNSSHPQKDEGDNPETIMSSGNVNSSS

First: CS(=O)(=O)Nc1ccc(-c2noc(-c3cn4cc(C#N)cc(Cl)c4n3)n2)c(Cl)c1 [Example 269, N-{3-chloro-4-[5-(8-chloro-6-cyanoimidazo[1,2-a]pyridin-2-yl)-1,2,4-oxadiazol-3-yl]phenyl}methanesulfonamide]
Second: CCNC(CC(=O)O)c1ccc(-c2noc(-c3cn4cc(C(F)(F)F)cc(Cl)c4n3)n2)c(Cl)c1 (stereo not shown) [Example 137, 3-(3-chloro-4-{5-[8-chloro-6-(trifluoromethyl)imidazo[1,2-a]pyridin-2-yl]-1,2,4-oxadiazol-3-yl}phenyl)-3-(ethylamino)propanoic acid]
The EC50 of the first is higher: 5000 to 10000 nM for the first, 1000 to 5000 nM for the second.

First: CS(=O)(=O)Nc1c(F)cc(-c2noc(-c3cn4cc(C(F)(F)F)cc(Cl)c4n3)n2)cc1F [Example 265, N-(4-{5-[8-chloro-6-(trifluoromethyl)imidazo[1,2-a]pyridin-2-yl]-1,2,4-oxadiazol-3-yl}-2,6-difluorophenyl)methanesulfonamide]
Second: O=C(O)c1cc2cc(-c3noc(-c4cn5cc(C(F)(F)F)cc(Cl)c5n4)n3)ccc2o1 [Example 158, 5-{5-[8-chloro-6-(trifluoromethyl)imidazo[1,2-a]pyridin-2-yl]-1,2,4-oxadiazol-3-yl}-1-benzofuran-2-carboxylic acid]
The EC50 of the first is lower: 500 to 1000 nM for the first, 1000 to 5000 nM for the second.

Same assay, conditions: read-out: Assay 1 EC50

`FC(F)(F)c1cc(Cl)c2nc(-c3noc(-c4ccccc4Cl)n3)cn2c1` [Example 229, 8-chloro-2-[5-(2-chlorophenyl)-1,2,4-oxadiazol-3-yl]-6-(trifluoromethyl)imidazo[1,2-a]pyridine] and `FC(F)(F)c1cc(Cl)c2nc(-c3nc(-c4ccccc4Cl)no3)cn2c1` [Example 273, 8-chloro-2-[3-(2-chlorophenyl)-1,2,4-oxadiazol-5-yl]-6-(trifluoromethyl)imidazo[1,2-a]pyridine] cannot be ordered by EC50: at most 100 nM for the first, at most 100 nM for the second.

`O=C(O)C1CC1c1cc(F)c(-c2noc(-c3cn4cc(C(F)(F)F)cc(Cl)c4n3)n2)cc1F` (stereo not shown) [Example 88, 2-(4-{5-[8-chloro-6-(trifluoromethyl)imidazo[1,2-a]pyridin-2-yl]-1,2,4-oxadiazol-3-yl}-2,5-difluorophenyl)cyclopropanecarboxylic acid] and `O=C(O)C1CC1c1ccc(-c2noc(-c3cn4cc(C(F)(F)F)cc(Cl)c4n3)n2)c(F)c1` (stereo not shown) [Entry 41] cannot be ordered by EC50: at most 100 nM for the first, 100 to 500 nM for the second.

`Oc1ccc(-c2noc(-c3cn4cc(C(F)(F)F)cc(Cl)c4n3)n2)c(Cl)c1` [Example 187, 3-chloro-4-{5-[8-chloro-6-(trifluoromethyl)imidazo[1,2-a]pyridin-2-yl]-1,2,4-oxadiazol-3-yl}phenol] and `CC(C)(O)c1ccc(-c2noc(-c3cn4cc(C(F)(F)F)cc(Cl)c4n3)n2)c(Cl)c1` [Example 126, 2-(3-chloro-4-{5-[8-chloro-6-(trifluoromethyl)imidazo[1,2-a]pyridin-2-yl]-1,2,4-oxadiazol-3-yl}phenyl)propan-2-ol] cannot be ordered by EC50: at most 100 nM for the first, 100 to 500 nM for the second.

`CC(Cc1ccc(-c2noc(-c3cn4cc(C(F)(F)F)cc(Cl)c4n3)n2)c(F)c1)C(=O)O` (stereo not shown) [Example 192, 3-(4-{5-[8-chloro-6-(trifluoromethyl)imidazo[1,2-a]pyridin-2-yl]-1,2,4-oxadiazol-3-yl}-3-fluorophenyl)-2-methylpropanoic acid] and `NC(Cc1ccc(-c2noc(-c3cn4cc(C(F)(F)F)cc(Cl)c4n3)n2)c(Cl)c1)C(=O)O` (stereo not shown) [Entry 11] fall in the same range of EC50: 100 to 500 nM for the first, 100 to 500 nM for the second.

`O=c1[nH]c(Cc2ccc(-c3noc(-c4cn5cc(C(F)(F)F)cc(Cl)c5n4)n3)c(Cl)c2)no1` [Example 271, 3-[(3-chloro-4-{5-[8-chloro-6-(trifluoromethyl)imidazo[1,2-a]pyridin-2-yl]-1,2,4-oxadiazol-3-yl}phenyl)methyl]-1,2,4-oxadiazol-5(4H)-one] and `CC(CN)Oc1ccc(-c2noc(-c3cn4cc(C(F)(F)F)cc(Cl)c4n3)n2)c(Cl)c1` (stereo not shown) [Example 258, 2-[(3-chloro-4-{5-[8-chloro-6-(trifluoromethyl)imidazo[1,2-a]pyridin-2-yl]-1,2,4-oxadiazol-3-yl}phenyl)oxy]propan-1-amine] fall in the same range of EC50: 100 to 500 nM for the first, 100 to 500 nM for the second.

`O=C(O)CCNc1ccc(-c2noc(-c3cn4cc(C(F)(F)F)cc(Cl)c4n3)n2)c(Cl)c1` [Example 95, N-(3-chloro-4-{5-[8-chloro-6-(trifluoromethyl)imidazo[1,2-a]pyridin-2-yl]-1,2,4-oxadiazol-3-yl}phenyl)-beta-alanine] and `O=C(O)COc1ccc(-c2noc(-c3cn4cc(C(F)(F)F)cc(Cl)c4n3)n2)c(Cl)c1` [Example 253, [(3-chloro-4-{5-[8-chloro-6-(trifluoromethyl)imidazo[1,2-a]pyridin-2-yl]-1,2,4-oxadiazol-3-yl}phenyl)oxy]acetic acid] fall in the same range of EC50: 100 to 500 nM for the first, 100 to 500 nM for the second.

`O=C(O)CCNCc1ccc(-c2noc(-c3cn4cc(C(F)(F)F)cc(Cl)c4n3)n2)cc1` [Example 123, N-[(4-{5-[8-chloro-6-(trifluoromethyl)imidazo[1,2-a]pyridin-2-yl]-1,2,4-oxadiazol-3-yl}phenyl)methyl]-beta-alanine] and `O=C(Cn1ccc2c(-c3noc(-c4cn5cc(C(F)(F)F)cc(Cl)c5n4)n3)cccc21)NCCO` [Example 175, 2-(4-{5-[8-chloro-6-(trifluoromethyl)imidazo[1,2-a]pyridin-2-yl]-1,2,4-oxadiazol-3-yl}-1H-indol-1-yl)-N-(2-hydroxyethyl)acetamide] cannot be ordered by EC50: 100 to 500 nM for the first, at most 100 nM for the second.

`O=C(O)C(O)COc1ccc(-c2noc(-c3cn4cc(C(F)(F)F)cc(Cl)c4n3)n2)c(Cl)c1` (stereo not shown) [Entry 57] and `OC[C@H]1C[C@H](Oc2ccc(-c3noc(-c4cn5cc(C(F)(F)F)cc(Cl)c5n4)n3)c(Cl)c2)CN1` [Example 84, {(2R,4S)-4-[(3-chloro-4-{5-[8-chloro-6-(trifluoromethyl)imidazo[1,2-a]pyridin-2-yl]-1,2,4-oxadiazol-3-yl}phenyl)oxy]pyrrolidin-2-yl}methanol] cannot be ordered by EC50: at most 100 nM for the first, 100 to 500 nM for the second.

First: Fc1cccc(Cl)c1-c1noc(-c2cn3cc(C(F)(F)F)cc(Br)c3n2)n1 [Example 147, 8-bromo-2-[3-(2-chloro-6-fluorophenyl)-1,2,4-oxadiazol-5-yl]-6-(trifluoromethyl)imidazo[1,2-a]pyridine]
Second: Fc1ccc(-c2noc(-c3cn4cc(C(F)(F)F)cc(Cl)c4n3)n2)c(F)c1 [Example 146, 8-chloro-2-[3-(2,4-difluorophenyl)-1,2,4-oxadiazol-5-yl]-6-(trifluoromethyl)imidazo[1,2-a]pyridine]
The EC50 of the first is lower: 100 to 500 nM for the first, 500 to 1000 nM for the second.

`Cc1cc(-c2noc(-c3cn4cc(C(F)(F)F)cc(Cl)c4n3)n2)cc(C)c1O[C@@H](C)CO` [Example 107, (2S)-2-[(4-{5-[8-chloro-6-(trifluoromethyl)imidazo[1,2-a]pyridin-2-yl]-1,2,4-oxadiazol-3-yl}-2,6-dimethylphenyl)oxy]propan-1-ol] and `Cc1cc(NS(C)(=O)=O)c(F)cc1-c1noc(-c2cn3cc(C(F)(F)F)cc(Cl)c3n2)n1` [Example 106, N-(4-{5-[8-chloro-6-(trifluoromethyl)imidazo[1,2-a]pyridin-2-yl]-1,2,4-oxadiazol-3-yl}-2-fluoro-5-methylphenyl)methane sulfonamide] cannot be ordered by EC50: at most 100 nM for the first, at most 100 nM for the second.

`O=C(O)CCc1cc(Cl)c(-c2noc(-c3cn4cccc(Cl)c4n3)n2)cc1F` [Entry 32] and `Oc1cc(Cl)c(-c2noc(-c3cn4cc(C(F)(F)F)cc(Br)c4n3)n2)cc1Cl` [Example 197, 4-{5-[8-bromo-6-(trifluoromethyl)imidazo[1,2-a]pyridin-2-yl]-1,2,4-oxadiazol-3-yl}-2,5-dichlorophenol] fall in the same range of EC50: 100 to 500 nM for the first, 100 to 500 nM for the second.

`Fc1ccc(-c2nc(-c3cn4cc(C(F)(F)F)cc(Cl)c4n3)no2)c(Cl)c1` [Example 232, 8-chloro-2-[5-(2-chloro-4-fluorophenyl)-1,2,4-oxadiazol-3-yl]-6-(trifluoromethyl)imidazo[1,2-a]pyridine] and `OCCN1CCC(Oc2cc(Cl)c(-c3noc(-c4cn5cc(C(F)(F)F)cc(Cl)c5n4)n3)cc2F)C1` (stereo not shown) [Example 144, 2-{3-[(5-chloro-4-{5-[8-chloro-6-(trifluoromethyl)imidazo[1,2-a]pyridin-2-yl]-1,2,4-oxadiazol-3-yl}-2-fluorophenyl)oxy]pyrrolidin-1-yl}ethanol] fall in the same range of EC50: 100 to 500 nM for the first, 100 to 500 nM for the second.

Same assay, conditions: relative EC50 was measured (footnote 1), read-out: Assay 1 Relative EC50

First: O=C(O)CCc1cc(Cl)c(-c2noc(-c3cn4cc(F)cc(F)c4n3)n2)cc1F [Entry 40]
Second: COc1cc2nc(-c3nc(-c4cc(F)c(CCC(=O)O)cc4Cl)no3)cn2cc1Cl [Entry 55]
The EC50 of the first is lower: 1000 to 5000 nM for the first, 5000 to 10000 nM for the second.

For `O=C(O)CCc1cc(Cl)c(-c2noc(-c3cn4ccccc4n3)n2)cc1F` [Entry 27], the EC50 was 5000 to 10000 nM.
